Assay results published in patent US20220031590A1, “ORAL CARE COMPOSITION” (SYMRISE AG, priority 2016, published 2022).

System: in-vitro oral biofilms
Experiment: Effect of treatment with active agents on the composition of in-vitro oral biofilms (Calgary Biofilm Device, 16S rRNA pyrosequencing)
Format: cell-based, oral bacteria
Text: An in-vitro oral biofilm model for oral care product evaluation has recently been developed using the commercially available Calgary Biofilm Device (CBD) (Ceri, Olson, Stremick, Read, Morck, Buret, J Clin Microbiol. (1999) June; 37(6):1771-6) seeded with a natural saliva inoculum (Kistler, Pesaro, Wade, BMC Microbiol. (2015) December; 15(1):364). The pegs of the CBD were coated in hydroxyapatite to provide a surface that was chemically similar to tooth enamel. […] In addition, the composition of the biofilms was reproducible when derived from saliva of the same individuals at different time points.
Approximately 5 ml of saliva was collected from each volunteer by expectoration into sterile universal tubes. The saliva samples were then pooled together in equal volumes. DNA was extracted from an aliquot of the pooled saliva and 200 μl was pipetted into each well of a microtitre plate, as required. The wells around the edge of the microplate were not used. The device lid, with 96 hydroxyapatite-coated pegs (to mimic teeth) was fitted so that the pegs were bathed in saliva. The CBD was then incubated for 18 hours at 37° C. in air+5% CO2 after which the lid was transferred to a new baseplate containing Brain Heart Infusion (BHI) broth (Fluka Analytical) supplemented with hog gastric mucin (1 g/L), haemin (10 mg/L), and vitamin K (0.5 mg/L). The growth medium was changed after every 3.5 days.
The active agents were prepared as follows: 5% or 7.5% stock solutions were made in absolute ethanol. The stock solutions were then diluted to working concentration in sterile PBS. Thymol was diluted down to a final concentration of 0.1% v/v and the composition according to the invention, comprising 95% carrier and 5% of the compound of formula A, was diluted to 0.15% v/v. The final test concentration of the compound of formula A was 0.0075 wt.-%.
At 7 days, biofilms were treated with the active agents or a negative PBS control. […]
The bacterial composition of the biofilms and saliva was determined using 454 pyrosequencing of partial 16S rRNA genes. […]

How did the “PCoA clustering of treated biofilms relative to negative control” value (community membership (Jaccard index) and structure (thetaYC)) turn out when Cc1ccc(C(C)C)c(O)c1 [Thymol] was run?
Its value is “did not cluster separately”.

And the “Mean no. of OTUs (sd)” value (richness of the biofilm community, treated twice daily for seven days, thymol 0.1% v/v, composition 0.15% v/v, 10 replicates)?
Its value is 250.8.

What about the “Effect on the composition of in-vitro biofilms” value (summary statement) of the same compound?
Its value is “did not have a significant effect”.
